Ends that are not written are not given here.
Legend:
MRSA 936 = format: cell-based, Staphylococcus aureus; conditions: 936, 18 h
Protocol: (§1) The minimum inhibitory concentration (MIC) of the Feleucin-K3 analogs was tested by the broth microdilution method. Sensitive bacteria and drug-resistant bacteria were diluted to 1 × 10^6 CFU/mL, according to the McFarland standards. Bacterial suspension and peptide solutions (8–128 μg/mL) were incubated at 37 °C for 18 h. The minimum concentration without obvious bacterial growth was the MIC of the peptides. The stability of the analogs in a physiological salt environment was also investigated. In brief, salt powder (450-mM NaCl) was dissolved in deionized water, and the following investigational steps were the same as those described before. The above steps were repeated several times, until the same value was obtained three times.

MRSA 74 = format: cell-based, Staphylococcus aureus; conditions: 74, 18 h
Protocol: as §1

MRSA 54 = format: cell-based, Staphylococcus aureus; conditions: 54, 18 h
Protocol: as §1

MRSA 48 = format: cell-based, Staphylococcus aureus; conditions: 48, 18 h
Protocol: as §1

MRSA 113 = format: cell-based, Staphylococcus aureus; conditions: 113, 18 h
Protocol: as §1

S. aureus 725 = format: cell-based, Staphylococcus aureus; conditions: 725, 18 h
Protocol: as §1

MRSA 23 = format: cell-based, Staphylococcus aureus; conditions: 23, 18 h
Protocol: as §1

MRSA ATCC 33591 = format: cell-based, Staphylococcus aureus; conditions: ATCC 33591, 18 h
Protocol: as §1

MRSA 52 = format: cell-based, Staphylococcus aureus; conditions: 52, 18 h
Protocol: as §1

MRSA 75 = format: cell-based, Staphylococcus aureus; conditions: 75, 18 h
Protocol: as §1

S. aureus 794 = format: cell-based, Staphylococcus aureus; conditions: 794, 18 h
Protocol: as §1

MRSA 51 = format: cell-based, Staphylococcus aureus; conditions: 51, 18 h
Protocol: as §1

MRSA 71 = format: cell-based, Staphylococcus aureus; conditions: 71, 18 h
Protocol: as §1

mouse RBCs = conditions: cited from earlier work
From the text: The hemolysis rates of K70 were less than 1%, even at the maximum c ...

A. baumannii 91199 = format: cell-based, Acinetobacter baumannii; conditions: 91199, 18 h
Protocol: as §1

A. baumannii 91944 = format: cell-based, Acinetobacter baumannii; conditions: 91944, 18 h
Protocol: as §1

A. baumannii 9896 = format: cell-based, Acinetobacter baumannii; conditions: 9896, 18 h
Protocol: as §1

A. baumannii 9236 = format: cell-based, Acinetobacter baumannii; conditions: 9236, 18 h
Protocol: as §1

A. baumannii 51243 = format: cell-based, Acinetobacter baumannii; conditions: 51243, 18 h
Protocol: as §1

A. baumannii 91105 = format: cell-based, Acinetobacter baumannii; conditions: 91105, 18 h
Protocol: as §1

A. baumannii 822144 = format: cell-based, Acinetobacter baumannii; conditions: 822144, 18 h
Protocol: as §1

A. baumannii 9336 = format: cell-based, Acinetobacter baumannii; conditions: 9336, 18 h
Protocol: as §1

A. baumannii 91869 = format: cell-based, Acinetobacter baumannii; conditions: 91869, 18 h
Protocol: as §1

A. baumannii 9840 = format: cell-based, Acinetobacter baumannii; conditions: 9840, 18 h
Protocol: as §1

A. baumannii 5444 = format: cell-based, Acinetobacter baumannii; conditions: 5444, 18 h
Protocol: as §1

A. baumannii 91810 = format: cell-based, Acinetobacter baumannii; conditions: 91810, 18 h
Protocol: as §1

A. baumannii 9331 = format: cell-based, Acinetobacter baumannii; conditions: 9331, 18 h
Protocol: as §1

A. baumannii 91152 = format: cell-based, Acinetobacter baumannii; conditions: 91152, 18 h
Protocol: as §1

A. baumannii 8309 = format: cell-based, Acinetobacter baumannii; conditions: 8309, 18 h
Protocol: as §1

A. baumannii 97830 = format: cell-based, Acinetobacter baumannii; conditions: 97830, 18 h
Protocol: as §1

A. baumannii 98110 = format: cell-based, Acinetobacter baumannii; conditions: 98110, 18 h
Protocol: as §1

A. baumannii 9234 = format: cell-based, Acinetobacter baumannii; conditions: 9234, 18 h
Protocol: as §1

A. baumannii 92359 = format: cell-based, Acinetobacter baumannii; conditions: 92359, 18 h
Protocol: as §1

A. baumannii 9828 = format: cell-based, Acinetobacter baumannii; conditions: 9828, 18 h
Protocol: as §1

A. baumannii = experiment: Resistance development assay, sequential passaging; format: cell-based, Acinetobacter baumannii; conditions: serial passage at sub-MIC, 20 passages
Protocol: (§2) Serial passage and MIC determination were used to explore whether the bacteria developed drug resistance. On the first day, the MICs of the peptides were determined as described above. The next day, the bacterial suspension of sub-MIC concentration was cultivated to the mid-log phase. The MICs of the peptides were detected again, and this process was repeated for 20 days. The MICs of the antibiotics, including amoxicillin (AML), ceftazidime (CAZ) and imipenem, were also determined as controls.

[1] = system: multidrug-resistant A. baumannii; parameters: method as in PMID 32590058; conditions: previous studies; cited from earlier work
E. coli = experiment: Resistance development assay, sequential passaging; format: cell-based; conditions: serial passage at sub-MIC, 20 passages
Protocol: as §2

P. aeruginosa = experiment: Resistance development assay, sequential passaging; format: cell-based, Pseudomonas aeruginosa; conditions: serial passage at sub-MIC, 20 passages
Protocol: as §2

FLKLLKKLL-NH2 [Feleucin-K3]
MIC, MRSA 936 (MRSA 936): 8 µg/mL
MIC, MRSA 74 (MRSA 74): 8 µg/mL
MIC, MRSA 54 (MRSA 54): 8 µg/mL
MIC, MRSA 48 (MRSA 48): 8 µg/mL
MIC, MRSA 113 (MRSA 113): 8 µg/mL
MIC, S. aureus 725 (S. aureus 725): 8 µg/mL
MIC, MRSA 23 (MRSA 23): 8 µg/mL
MIC, MRSA ATCC 33591 (MRSA ATCC 33591): 8 µg/mL
MIC, MRSA 52 (MRSA 52): 8 µg/mL
MIC, MRSA 75 (MRSA 75): 8 µg/mL
MIC, S. aureus 794 (S. aureus 794): 16 µg/mL
MIC, MRSA 51 (MRSA 51): 8 µg/mL
MIC, MRSA 71 (MRSA 71): 8 µg/mL
hemolytic rate at 256 µg/mL (mouse RBCs): more than 40%
MIC, A. baumannii 91199 (A. baumannii 91199): 8 µg/mL
MIC, A. baumannii 91944 (A. baumannii 91944): 8 µg/mL
MIC, A. baumannii 9896 (A. baumannii 9896): 8 µg/mL
MIC, A. baumannii 9236 (A. baumannii 9236): 16 µg/mL
MIC, A. baumannii 51243 (A. baumannii 51243): 8 µg/mL
MIC, A. baumannii 91105 (A. baumannii 91105): 8 µg/mL
MIC, A. baumannii 822144 (A. baumannii 822144): 8 µg/mL
MIC, A. baumannii 9336 (A. baumannii 9336): 8 µg/mL
MIC, A. baumannii 91869 (A. baumannii 91869): 8 µg/mL
MIC, A. baumannii 9840 (A. baumannii 9840): 8 µg/mL
MIC, A. baumannii 5444 (A. baumannii 5444): 8 µg/mL
MIC, A. baumannii 91810 (A. baumannii 91810): 8 µg/mL
MIC, A. baumannii 9331 (A. baumannii 9331): 16 µg/mL
MIC, A. baumannii 91152 (A. baumannii 91152): 8 µg/mL
MIC, A. baumannii 8309 (A. baumannii 8309): 8 µg/mL
MIC, A. baumannii 97830 (A. baumannii 97830): 8 µg/mL
MIC, A. baumannii 98110 (A. baumannii 98110): 8 µg/mL
MIC, A. baumannii 9234 (A. baumannii 9234): 8 µg/mL
MIC, A. baumannii 92359 (A. baumannii 92359): 8 µg/mL
MIC, A. baumannii 9828 (A. baumannii 9828): 16 µg/mL

C[C@@H](O)[C@H]1C(=O)N2C(C(=O)O)=C(SCCN=CN)C[C@H]12 [imipenem]
maximum fold increase of MIC, A. baumannii (A. baumannii): ≤ 16 fold
MIC against multidrug-resistant A. baumannii [1]: ≤ 64 µg/mL

CC(C)(O/N=C(\C(=O)N[C@@H]1C(=O)N2C(C(=O)[O-])=C(C[n+]3ccccc3)CS[C@H]12)c1csc(N)n1)C(=O)O [CAZ, ceftazidime]
fold increase of MIC, E. coli (E. coli): 16 fold
fold increase of MIC, P. aeruginosa (P. aeruginosa): 32 fold

Reference: PMC8160793, “Potent Antimicrobial and Antibiofilm Activities of Feleucin-K3 Analogs Modified by α-(4-Pentenyl)-Ala against Multidrug-Resistant Bacteria” (Biomolecules, 2021)
